From US20250115620A1, “BRIDGED TRICYCLIC CARBAMOYLPYRIDONE COMPOUNDS AND USES THEREOF” (Gilead Sciences, Inc., priority 2022, published 2025)
Read-outs that look alike come from different tables or passages of the source.

What was measured:
pLAI reporter virus = experiment: microbe, parasite or virus in culture; format: cell-based, HIV; details: Human immunodeficiency virus 1, MT4, 72 h
in vitro = details: human, uninfected MT-4 cells
Procedure: Compounds were serially diluted (1:3) in DMSO on 384-well polypropylene plates and further diluted 200-fold into complete RPMI media (10% FBS, 1% P/S) using the Biotek Micro Flow and Labcyte ECHO acoustic dispenser. […] Infected and uninfected MT-4 cells were further diluted in complete RPMI media and added to each plate using a Micro Flow dispenser. After 5 days incubation in a humidified and temperature controlled incubator (37° C.), Cell Titer Glo (Promega) was added to the assay plates and chemiluminescence read using an Envision plate-reader.
Assays were performed as above except uninfected MT-4 cells were added to each well containing test compound. In addition, 10 μM puromycin was added to the last column of each assay plate to assess a base level of cytotoxicity.

HIV-1 (IIIB) = experiment: microbe, parasite or virus in culture; format: cell-based; details: Human immunodeficiency virus 1, IIIB, MT4, 120 h, HIV-1 (IIIB) in MT-4 cells, 5 days incubation, Cell Titer Glo; read-out: MT4 EC50
Procedure: Compounds were tested in a high-throughput 384-well assay format for their ability to inhibit the replication of HIV-1 (IIIB) in MT-4 cells. Compounds were serially diluted (1:3) in DMSO on 384-well polypropylene plates and further diluted 200-fold into complete RPMI media (10% FBS, 1% P/S) using the Biotek Micro Flow and Labcyte ECHO acoustic dispenser. Each plate contained up to 8 test compounds, with negative (No Drug Control) and 5 μM AZT positive controls. MT-4 cells were pre-infected with 10 μL of either RPMI (mock-infected) or a fresh 1:250 dilution of HIV-1 IIIB concentrated virus stock. Infected and uninfected MT-4 cells were further diluted in complete RPMI media and added to each plate using a Micro Flow dispenser. After 5 days incubation in a humidified and temperature controlled incubator (37° C.), Cell Titer Glo (Promega) was added to the assay plates and chemiluminescence read using an Envision plate-reader.

SMILES	EC50 (pLAI reporter virus; read-out: RLUC 50% HS EC50) [nM]	EC50 (pLAI reporter virus; read-out: RLUC CCM EC50) [nM]	CC50 at 5 days (in vitro) [nM]	EC50 (HIV-1 (IIIB)) [nM]
C[C@H]1CC[C@]2(CC(N3CCCC3)=NO2)[C@H]2CN1C(=O)c1c(O)c(=O)c(C(=O)NCc3c(F)cc(F)cc3F)cn12 [Example 75, (3′S,5S,7′R)-12′-hydroxy-3′-methyl-1′,11′-dioxo-3-(pyrrolidin-1-yl)-N-(2,4,6-trifluorobenzyl)-1′,4′,5′,11′-tetrahydro-3′H,4H,7′H-spiro[isoxazole-5,6′-[2,7]methanopyrido[1,2-a][1,4]diazonine]-10′-carboxamide]	1.8	0.3	14100	1.8
C[C@H]1CC[C@]2(CC(n3cnnc3)=NO2)[C@H]2CN1C(=O)c1c(O)c(=O)c(C(=O)NCc3c(F)cc(F)cc3F)cn12 [Example 76, (3′S,5S,7′R)-12′-hydroxy-3′-methyl-1′,11′-dioxo-3-(4H-1,2,4-triazol-4-yl)-N-(2,4,6-trifluorobenzyl)-1′,4′,5′,11′-tetrahydro-3′H,4H,7′H-spiro[isoxazole-5,6′-[2,7]methanopyrido[1,2-a][1,4]diazonine]-10′-carboxamide]	3.3	0.4	10100	2.2
C[C@H]1CC[C@]2(CC(n3cccn3)=NO2)[C@H]2CN1C(=O)c1c(O)c(=O)c(C(=O)NCc3c(F)cc(F)cc3F)cn12 [Example 77, (3′S,5S,7′R)-12′-hydroxy-3′-methyl-1′,11′-dioxo-3-(1H-pyrazol-1-yl)-N-(2,4,6-trifluorobenzyl)-1′,4′,5′,11′-tetrahydro-3′H,4H,7′H-spiro[isoxazole-5,6′-[2,7]methanopyrido[1,2-a][1,4]diazonine]-10′-carboxamide]	17.7	0.5	1480	2.9
C[C@H]1CC[C@]2(CC(C#CC(C)(C)S(C)(=O)=O)=NO2)[C@H]2CN1C(=O)c1c(O)c(=O)c(C(=O)NCc3c(F)cc(F)cc3F)cn12 [Example 79, (3′S,5S,7′R)-12′-hydroxy-3′-methyl-3-(3-methyl-3-(methylsulfonyl)but-1-yn-1-yl)-1′,11′-dioxo-N-(2,4,6-trifluorobenzyl)-1′,4′,5′,11′-tetrahydro-3′H,4H,7′H-spiro[isoxazole-5,6′-[2,7]methanopyrido[1,2-a][1,4]diazonine]-10′-carboxamide]	1.4	1	≥ 50000	4.8
C[C@H]1CC[C@@]2(CC(C#CC(C)(C)S(C)(=O)=O)=NO2)[C@H]2CN1C(=O)c1c(O)c(=O)c(C(=O)NCc3c(F)cc(F)cc3F)cn12 [Example 80, (3′S,5R,7′R)-12′-hydroxy-3′-methyl-3-(3-methyl-3-(methylsulfonyl)but-1-yn-1-yl)-1′,11′-dioxo-N-(2,4,6-trifluorobenzyl)-1′,4′,5′,11′-tetrahydro-3′H,4H,7′H-spiro[isoxazole-5,6′-[2,7]methanopyrido[1,2-a][1,4]diazonine]-10′-carboxamide]	30.1	15.7	≥ 50000	81.5
C[C@H]1CC[C@]2(CC(C#CC(C)(C)O)=NO2)[C@H]2CN1C(=O)c1c(O)c(=O)c(C(=O)NCc3c(F)cc(F)cc3F)cn12 [Example 81, (3′S,5S,7′R)-12′-hydroxy-3-(3-hydroxy-3-methylbut-1-yn-1-yl)-3′-methyl-1′,11′-dioxo-N-(2,4,6-trifluorobenzyl)-1′,4′,5′,11′-tetrahydro-3′H,4H,7′H-spiro[isoxazole-5,6′-[2,7]methanopyrido[1,2-a][1,4]diazonine]-10′-carboxamide]	0.6	0.5	19600	2.1
C[C@H]1CC[C@]2(CC(F)=NO2)[C@H]2CN1C(=O)c1c(O)c(=O)c(C(=O)NCc3c(F)cc(F)cc3F)cn12 [Example 82, (3′S,5S,7′R)-3-fluoro-12′-hydroxy-3′-methyl-1′,11′-dioxo-N-(2,4,6-trifluorobenzyl)-1′,4′,5′,11′-tetrahydro-3′H,4H,7′H-spiro[isoxazole-5,6′-[2,7]methanopyrido[1,2-a][1,4]diazonine]-10′-carboxamide]	186	1.3	5460	7.1
[2H]C1C(OC)=NO[C@@]12CC[C@H](C)N1C[C@H]2n2cc(C(=O)NCc3c(F)cc(F)cc3F)c(=O)c(O)c2C1=O (stereo partly drawn) [Example 83, (3′S,5S,7′R)-12′-hydroxy-3-methoxy-3′-methyl-1′,11′-dioxo-N-(2,4,6-trifluorobenzyl)-1′,4′,5′,11′-tetrahydro-3′H,4H,7′H-spiro[isoxazole-5,6′-[2,7]methanopyrido[1,2-a][1,4]diazonine]-4-d-10′-carboxamide]	41.1	0.3	16200	2.3
COC1=NO[C@@]2(CC[C@H](C)N3C[C@H]2n2cc(C(=O)NCc4c(F)cc(F)cc4F)c(=O)c(O)c2C3=O)[C@H]1O [Example 84, (3′S,4R,5R,7′R)-4,12′-dihydroxy-3-methoxy-3′-methyl-1′,11′-dioxo-N-(2,4,6-trifluorobenzyl)-1′,4′,5′,11′-tetrahydro-3′H,4H,7′H-spiro[isoxazole-5,6′-[2,7]methanopyrido[1,2-a][1,4]diazonine]-10′-carboxamide]	22.3	0.3	25800	1.6
COC1=NO[C@@]2(CC[C@H](C)N3C[C@H]2n2cc(C(=O)NCc4c(F)cc(F)cc4F)c(=O)c(O)c2C3=O)[C@H]1C [Example 85, (3′S,4R,5S,7′R)-12′-hydroxy-3-methoxy-3′,4-dimethyl-1′,11′-dioxo-N-(2,4,6-trifluorobenzyl)-1′,4′,5′,11′-tetrahydro-3′H,4H,7′H-spiro[isoxazole-5,6′-[2,7]methanopyrido[1,2-a][1,4]diazonine]-10′-carboxamide]	28.7	0.2	29600	1
COC1=NO[C@@]2(CC[C@H](C)N3C[C@H]2n2cc(C(=O)NCc4c(F)cc(F)cc4F)c(=O)c(O)c2C3=O)[C@@H]1F [Example 86, (3′S,4S,5R,7′R)-4-fluoro-12′-hydroxy-3-methoxy-3′-methyl-1′,11′-dioxo-N-(2,4,6-trifluorobenzyl)-1′,4′,5′,11′-tetrahydro-3′H,4H,7′H-spiro[isoxazole-5,6′-[2,7]methanopyrido[1,2-a][1,4]diazonine]-10′-carboxamide]	68.4	0.3	11900	1.2
COC1=NO[C@@]2(CC[C@H](C)N3C[C@H]2n2cc(C(=O)NCc4c(F)cc(F)cc4F)c(=O)c(O)c2C3=O)[C@H]1F [Example 87, (3′S,4R,5R,7′R)-4-fluoro-12′-hydroxy-3-methoxy-3′-methyl-1′,11′-dioxo-N-(2,4,6-trifluorobenzyl)-1′,4′,5′,11′-tetrahydro-3′H,4H,7′H-spiro[isoxazole-5,6′-[2,7]methanopyrido[1,2-a][1,4]diazonine]-10′-carboxamide]	31.8	0.2	10500	1.2
C[C@H]1CC[C@@]2(ON=C(CF)[C@@H]2O)[C@H]2CN1C(=O)c1c(O)c(=O)c(C(=O)NCc3c(F)cc(F)cc3F)cn12 [Example 88, (3′S,4S,5R,7′R)-3-(fluoromethyl)-4,12′-dihydroxy-3′-methyl-1′,11′-dioxo-N-(2,4,6-trifluorobenzyl)-1′,4′,5′,11′-tetrahydro-3′H,4H,7′H-spiro[isoxazole-5,6′-[2,7]methanopyrido[1,2-a][1,4]diazonine]-10′-carboxamide]	280	0.3	≥ 50000	2.6
C[C@H]1CC[C@@]2(ON=C(CF)[C@@H]2O)[C@H]2CN1C(=O)c1c(O)c(=O)c(C(=O)NCc3ccc(F)cc3F)cn12 [Example 89, (3′S,4S,5R,7′R)—N-(2,4-difluorobenzyl)-3-(fluoromethyl)-4,12′-dihydroxy-3′-methyl-1′,11′-dioxo-1′,4′,5′,11′-tetrahydro-3′H,4H,7′H-spiro[isoxazole-5,6′-[2,7]methanopyrido[1,2-a][1,4]diazonine]-10′-carboxamide]	63.8	0.4	≥ 50000	1.3
CC1=NO[C@@]2(CC[C@H](C)N3C[C@H]2n2cc(C(=O)NCc4ccc(F)cc4F)c(=O)c(O)c2C3=O)O1 [Example 91, (3′S,5R,7′R)—N-(2,4-difluorobenzyl)-12′-hydroxy-3,3′-dimethyl-1′,11′-dioxo-1′,4′,5′,11′-tetrahydro-3′H,7′H-spiro[[1,4,2]dioxazole-5,6′-[2,7]methanopyrido[1,2-a][1,4]diazonine]-10′-carboxamide]	158	0.2	20000	1.4
CC1=NO[C@@]2(CC[C@H](C)N3C[C@H]2n2cc(C(=O)NCc4c(F)cc(F)cc4F)c(=O)c(O)c2C3=O)O1 [Example 92, (3′S,5R,7′R)-12′-hydroxy-3,3′-dimethyl-1′,11′-dioxo-N-(2,4,6-trifluorobenzyl)-1′,4′,5′,11′-tetrahydro-3′H,7′H-spiro[[1,4,2]dioxazole-5,6′-[2,7]methanopyrido[1,2-a][1,4]diazonine]-10′-carboxamide]	409	0.2	24900	0.7
CCC1=NO[C@@]2(CC[C@H](C)N3C[C@H]2n2cc(C(=O)NCc4c(F)cc(F)cc4F)c(=O)c(O)c2C3=O)O1 [Example 93, (3′S,5R,7′R)-3-ethyl-12′-hydroxy-3′-methyl-1′,11′-dioxo-N-(2,4,6-trifluorobenzyl)-1′,4′,5′,11′-tetrahydro-3′H,7′H-spiro[[1,4,2]dioxazole-5,6′-[2,7]methanopyrido[1,2-a][1,4]diazonine]-10′-carboxamide]	622	0.2	13600	0.7
